# Assay results published in patent US11234919B2, “Compound produced by means of marine microorganism and composition for improving skin wrinkles, enhancing elasticity and skin whitening comprising same compound as active ingredient” (KOREA INSTITUTE OF OCEAN SCIENCE & TECHNOLOGY, priority 2017, dated 2022).
# Test system: B-16 melanoma cells
# Assay: Melanogenesis inhibition in B-16 melanoma cell culture
# Format: cell-based
# Details: Mus musculus, B16, 72 h; melanin production relative to control with nothing added; final concentration 20 ppm; 3 days
# Description: The compounds shown in Table 1 were set to have final concentrations of 2 ppm and 20 ppm, and each of the compounds was added to a culture medium of B-16 melanoma cells, followed by incubation for 3 days. Thereafter, the cells were treated with trypsin, detached from the incubator, and centrifuged, and then melanin was extracted therefrom. The melanin was dissolved by addition of 1 mL of a sodium hydroxide solution (1 N) and boiling for 10 min, and then the absorbance was measured at 400 nm using a spectrometer, thereby determining the amount of melanin produced. The amount of melanin was measured as an absorbance per unit cell count (10^6 cells), and the amount of melanin production relative to the control with nothing added was calculated as an inhibition (%). The test was repeated three times.
# To compare melanogenesis inhibiting activity of the compounds according to the present disclosure, 20 ppm arbutin was also tested by the same method, and the results are also shown in Table 3.
row,Structure (SMILES),inhibition at 20 ppm [%]
1,"OC[C@H]1O[C@@H](Oc2ccc(O)cc2)[C@H](O)[C@@H](O)[C@@H]1O [Arbutin, arbutin, reference compound]",6.5

# Same assay, conditions: absorbance at 400 nm per 10^6 cells; final concentration 2 ppm; incubation 3 days
row,Structure (SMILES),Amount of melanin produced
1,C/C(=C\CO)c1cc(O)cc(=O)o1 [Compound 6],0.048 ± 0.001
2,C=C(C)c1oc(=O)cc(O)c1C(=O)O [Compound 4],0.048 ± 0.001
3,C/C=C(\C)c1oc(=O)c(C)cc1C [Compound 5],0.049 ± 0.001
4,CC/C=C(\C)c1oc(=O)c(CC)c(O)c1CC [Compound 3],0.048 ± 0.001
5,CCc1c(C)c(C(=O)O)c(/C(C)=C/CO)oc1=O [Compound 9],0.049 ± 0.001
6,CC/C=C(\C)c1oc(=O)c(CC)c(C)c1CC [Compound 10],0.049 ± 0.001
7,C=C(C)c1cc(O)cc(=O)o1 [Compound 1],0.047 ± 0.001
8,C/C=C(\C)c1oc(=O)c(C)c(O)c1C [Compound 2],0.048 ± 0.001

# Same assay, conditions: absorbance at 400 nm per 10^6 cells; final concentration 20 ppm; incubation 3 days
row,Structure (SMILES),Amount of melanin produced
1,C/C(=C\CO)c1cc(O)cc(=O)o1 [Compound 6],0.046 ± 0.001
2,"OC[C@H]1O[C@@H](Oc2ccc(O)cc2)[C@H](O)[C@@H](O)[C@@H]1O [Arbutin, arbutin, reference compound]",0.056 ± 0.001
3,C=C(C)c1oc(=O)cc(O)c1C(=O)O [Compound 4],0.046 ± 0.001
4,C/C=C(\C)c1oc(=O)c(C)cc1C [Compound 5],0.047 ± 0.001
5,CC/C=C(\C)c1oc(=O)c(CC)c(O)c1CC [Compound 3],0.047 ± 0.001
6,CCc1c(C)c(C(=O)O)c(/C(C)=C/CO)oc1=O [Compound 9],0.047 ± 0.001
7,CC/C=C(\C)c1oc(=O)c(CC)c(C)c1CC [Compound 10],0.047 ± 0.001
8,C=C(C)c1cc(O)cc(=O)o1 [Compound 1],0.046 ± 0.001
9,C/C=C(\C)c1oc(=O)c(C)c(O)c1C [Compound 2],0.046 ± 0.001

# Same assay, conditions: melanin production relative to control with nothing added; final concentration 2 ppm; 3 days
row,Structure (SMILES),Inhibition (%)
1,C/C(=C\CO)c1cc(O)cc(=O)o1 [Compound 6],18.3
2,C=C(C)c1oc(=O)cc(O)c1C(=O)O [Compound 4],20.0
3,C/C=C(\C)c1oc(=O)c(C)cc1C [Compound 5],18.3
4,CC/C=C(\C)c1oc(=O)c(CC)c(O)c1CC [Compound 3],20.0
5,CCc1c(C)c(C(=O)O)c(/C(C)=C/CO)oc1=O [Compound 9],18.3
6,CC/C=C(\C)c1oc(=O)c(CC)c(C)c1CC [Compound 10],18.3
7,C=C(C)c1cc(O)cc(=O)o1 [Compound 1],21.8
8,C/C=C(\C)c1oc(=O)c(C)c(O)c1C [Compound 2],20.0

# Same assay, conditions: melanin production relative to control with nothing added; final concentration 20 ppm; 3 days
row,Structure (SMILES),Inhibition (%)
1,C/C(=C\CO)c1cc(O)cc(=O)o1 [Compound 6],23.5
2,C=C(C)c1oc(=O)cc(O)c1C(=O)O [Compound 4],23.5
3,C/C=C(\C)c1oc(=O)c(C)cc1C [Compound 5],21.8
4,CC/C=C(\C)c1oc(=O)c(CC)c(O)c1CC [Compound 3],21.8
5,CCc1c(C)c(C(=O)O)c(/C(C)=C/CO)oc1=O [Compound 9],21.8
6,CC/C=C(\C)c1oc(=O)c(CC)c(C)c1CC [Compound 10],21.8
7,C=C(C)c1cc(O)cc(=O)o1 [Compound 1],23.5
8,C/C=C(\C)c1oc(=O)c(C)c(O)c1C [Compound 2],23.5

# Test system: human-derived fibroblasts
# Assay: Increase in collagen synthesis, PICP EIA kit, human fibroblast culture
# Format: cell-based
# Details: amount of collagen production as absorbance at 450 nm; final concentration 20 ppm; incubation one day
# Description: Out of the compounds represented by Formula 2, the compounds according to the present disclosure shown in Table 1 were tested for collagen synthesis stimulating activity by addition to cultures of human-derived fibroblasts.
# The measurement of synthesized collagen was conducted by quantification using a procollagen type I C-peptide enzyme immunoassay kit (PICP EIA kit).
# Collagen synthetic ability was evaluated by selecting the concentrations causing no toxicity on the basis of cytotoxicity results.
# In the test, the final concentration of the compounds of the present disclosure was set to 20 ppm. Each sample was added to the culture medium of human fibroblasts, followed by incubation for one day, and then the culture was taken out, and the degree of collagen synthesis was measured at each concentration through the PICP EIA kit by using a spectrometer at 450 nm. For comparison of effects, the degree of collagen synthesis was measured by the same method on a culture medium of fibroblasts with nothing added (control) and a sample with vitamin C added to a final concentration of 20 ppm. The amount of collagen production was measured as a UV absorbance, and the rate of increase in collagen production was calculated as a ratio of collagen production relative to the collagen production of the control.
row,Structure (SMILES),Amount of collagen production
1,C/C(=C\CO)c1cc(O)cc(=O)o1 [Compound 6],287.61
2,C=C(C)c1oc(=O)cc(O)c1C(=O)O [Compound 4],287.61
3,C/C=C(\C)c1oc(=O)c(C)cc1C [Compound 5],287.65
4,CC/C=C(\C)c1oc(=O)c(CC)c(O)c1CC [Compound 3],287.24
5,CCc1c(C)c(C(=O)O)c(/C(C)=C/CO)oc1=O [Compound 9],287.61
6,CC/C=C(\C)c1oc(=O)c(CC)c(C)c1CC [Compound 10],287.24
7,C=C(C)c1cc(O)cc(=O)o1 [Compound 1],287.65
8,"O=C1O[C@H]([C@@H](O)CO)C(O)=C1O [Vitamin C, vitamin C, reference compound]",217.35
9,C/C=C(\C)c1oc(=O)c(C)c(O)c1C [Compound 2],287.24

# Same assay, conditions: ratio of collagen production relative to control; final concentration 20 ppm; incubation one day
row,Structure (SMILES),Collagen increase (%)
1,C/C(=C\CO)c1cc(O)cc(=O)o1 [Compound 6],152.1
2,C=C(C)c1oc(=O)cc(O)c1C(=O)O [Compound 4],152.1
3,C/C=C(\C)c1oc(=O)c(C)cc1C [Compound 5],152.2
4,CC/C=C(\C)c1oc(=O)c(CC)c(O)c1CC [Compound 3],147.2
5,CCc1c(C)c(C(=O)O)c(/C(C)=C/CO)oc1=O [Compound 9],152.1
6,CC/C=C(\C)c1oc(=O)c(CC)c(C)c1CC [Compound 10],147.2
7,C=C(C)c1cc(O)cc(=O)o1 [Compound 1],152.2
8,"O=C1O[C@H]([C@@H](O)CO)C(O)=C1O [Vitamin C, vitamin C, reference compound]",115.3
9,C/C=C(\C)c1oc(=O)c(C)c(O)c1C [Compound 2],147.2
